Columns and labels:
Type in all cases: in vivo
Haemonchus contortus = Haemonchus contortus test; settings: 20 ppm; larvae; after 5 days
Protocol: Haemonchus contortus—Test
(§1) Solvent: dimethyl sulfoxide
To produce a suitable preparation of active compound, 10 mg of active compound are dissolved in 0.5 ml solvent, and the concentrate is diluted with “Ringer's solution” to the desired concentration.
Approximately 40 larvae of the red stomach worm (Haemonchus contortus) are transferred into a test tube containing compound solution.
After 5 days the percentage of larval mortality is recorded. 100% efficacy means all larvae are killed, 0% efficacy means no larvae are killed.

Meloidogyne incognita = Meloidogyne incognita test; settings: 20 ppm; eggs and larvae, salad seeds in sand; after 14 days
Protocol: Meloidogyne incognita—Test
Solvent: 125.0 parts by weight of acetone
To produce a suitable preparation of active compound, 1 part by weight of active compound is mixed with the stated amount of solvent, and the concentrate is diluted with water to the desired concentration.
Vessels are filled with sand, a solution of the active ingredient, a suspension containing eggs and larvae of the southern root-knot nematode (Meloidogyne incognita) and salad seeds. The salad seeds germinate and the seedlings grow. Galls develop in the roots.
After 14 days the nematicidal activity is determined on the basis of the percentage of gall formation. 100% means no galls were found and 0% means the number of galls found on the roots of the treated plants was equal to that in untreated control plants.

Boophilus microplus = Boophilus microplus injection test; settings: 20 μg/animal injected; adult engorged female ticks; after 7 days
Protocol: Boophilus microplus—Injection Test
as §1
To produce a suitable preparation of active compound, 10 mg of active compound are dissolved in 0.5 ml solvent, and the concentrate is diluted with solvent to the desired concentration.
Five adult engorged female ticks (Boophilus microplus) are injected with 1 μl compound solution into the abdomen. The ticks are transferred into replica plates and incubated in a climate chamber.
After 7 days egg deposition of fertile eggs is monitored. Eggs where fertility is not visible are stored in a climate chamber till hatching after about 42 days. An efficacy of 100% means all eggs are infertile; 0% means all eggs are fertile.

Ctenocephalides felis [1] = assay: Ctenocephalides felis in-vitro contact test, adult cat flea; settings: 5 μg/cm^2 (=500 g/ha), after 48 hours
Protocol: Ctenocephalides felis—In-Vitro Contact Tests Adult Cat Flea
9 mg compound is solved in 1 ml acetone and diluted with acetone to the desired concentration. 250 μl of the test solution is filled in 25 ml glass test tubes and homogeneously distributed on the inner walls by rotation and tilting on a shaking device (2 h at 30 rpm). With a compound concentration of 900 ppm, an inner surface of 44.7 cm^2 and a homogeneous distribution, a dose of 5 μg/cm^2 is achieved.
After the solvent has evaporated, each test tube is filled with 5-10 adult cat fleas (Ctenocephalides felis), closed with a perforated lid and incubated in a lying position at room temperature and relative humidity. After 48 hours efficacy is determined. The fleas are patted on the ground of the tubes and are incubated on a heating plate at 45-50° C. for at most 5 minutes. Immotile or uncoordinated moving fleas, which are not able to escape the heat by climbing upwards, are marked as dead or moribund.
An efficacy of 100% means all fleas are dead or moribund; 0% means no fleas are dead or moribund.

Tetranychus urticae = Tetranychus urticae spray test OP-resistant; settings: foliar, 144 h, French bean leaf disks, all instars, after 6 days
Protocol: Tetranychus urticae—Spray Test OP-Resistant
(§2) Solvent: 78.0 parts by weight acetone • 1.5 parts by weight dimethylformamide
(§3) Emulsifier: alkylarylpolyglycol ether
(§4) To produce a suitable preparation of active compound, 1 part by weight of active compound is mixed with the stated amount of solvents and is diluted with water, containing an emulsifier concentration of 1000 ppm, to the desired concentration. Further test concentrations are prepared by dilution with emulsifier containing water.
French bean (Phaseolus vulgaris) leaf disks infected with all instars of the two spotted spidermite (Tetranychus urticae), are sprayed with a preparation of the active ingredient of the desired concentration.
After 6 days mortality in % is determined. 100% means all spider mites have been killed and 0% means none of the spider mites have been killed.

Phaedon cochleariae = Phaedon cochleariae spray test; settings: foliar, 168 h, Chinese cabbage leaf disks, larvae, after 7 days
Protocol: Phaedon cochleariae—Spray Test
(§5) Solvent: 78.0 parts by weight of acetone • • 1.5 parts by weight of dimethylformamide
as §3, §4
Chinese cabbage (Brassica pekinensis) leaf disks are sprayed with a preparation of the active ingredient of the desired concentration. Once dry, the leaf disks are infested with mustard beetle larvae (Phaedon cochleariae).
After 7 days mortality in % is determined. 100% means all beetle larvae have been killed and 0% means none of the beetle larvae have been killed.

Lucilia cuprina = assay: whole plant or invertebrate; settings: 48 h
Protocol: as §1
10 mg active compound are dissolved in 0.5 ml Dimethylsulfoxid. Serial dilutions are made to obtain the desired rates.
Approximately 20 1st instar larvae of the Australian sheep blowfly (Lucilia cuprina) are transferred into a test tube containing minced horse meat and compound solution of the desired concentration.
After 2 days mortality in % is determined. 100% means all the larvae have been killed; 0% means none of the larvae have been killed.

Ctenocephalides felis [2] = assay: whole plant or invertebrate; settings: po, 48 h
Protocol: Ctenocephalides felis—Oral Test
as §1
To produce a suitable preparation of active compound, 10 mg of active compound are dissolved in 0.5 ml solvent, and the concentrate is diluted with cattle blood to the desired concentration.
Approximately 20 adult unfed cat fleas (Ctenocephalides felis) are placed in flea chambers. The blood chamber, sealed with parafilm on the bottom, are filled with cattle blood supplied with compound solution and placed on the gauze covered top of the flea chamber, so that the fleas are able to suck the blood. The blood chamber is heated to 37° C. whereas the flea chamber is kept at room temperature.
After 2 days mortality in % is determined. 100% means all the fleas have been killed; 0% means none of the fleas have been killed.

Nilaparvata lugens = Nilaparvata lugens spray test (solvent 52.5 acetone / 7 dimethylformamide); settings: 96 h, rice plants, larvae, after 4 days
Protocol: Nilaparvata lugens—Spray Test
(§6) Solvent: 52.5 parts by weight of acetone • 7 parts by weight of dimethylformamide
(§7) Emulsifier: alkylaryl polyglycolether
as §4, with “water. Ammonium salt and/or penetration enhancer in a dosage of 1000 ppm are added to the desired concentration if necessary.” for “water.”
Rice plants (Oryza sativa) are treated by being sprayed with the desired concentration of the active compound and are infested with larvae of the brown planthopper (Nilaparvata lugens).
After 4 days mortality in % is determined. 100% means all planthoppers have been killed and 0% means none of the planthoppers have been killed.

Diabrotica balteata = Diabrotica balteata spray test; settings: 160 μg/well; germinated wheat seeds, larvae; after 7 days
Protocol: Diabrotica Balteata—Spray Test
as §5, §3
as §4, with “solvent,” for “solvents”, “and the concentrate” for “and”
Soaked wheat seeds (Triticum aestivum) are placed in a multiple well plate filled with agar and some water and are incubated for 1 day to germinate (5 seeds per well). The germinated wheat seeds are sprayed with a test solution containing the desired concentration of the active ingredient. Afterwards each unit is infected with 10-20 larvae of the banded cucumber beetle (Diabrotica balteata).
After 7 days efficacy in % is determined. 100% means all the seedlings have grown up like in the untreated, uninfected control; 0% means none of the seedlings have grown.

Myzus persicae = Myzus persicae spray test; settings: foliar, Chinese cabbage leaf disks, all instars, after 5-6 days
Protocol: Myzus persicae—Spray Test
as §2, §3, §4
Chinese cabbage (Brassica pekinensis) leaf disks infected with all instars of the green peach aphid (Myzus persicae), are sprayed with a preparation of the active ingredient of the desired concentration.
After 5-6 days mortality in % is determined. 100% means all aphids have been killed and 0% means none of the aphids have been killed.

Nezara viridula [3] = assay: Nezara viridula spray test (solvent 78.0 acetone / 1.5 dimethylformamide); settings: 96 h, barley plants, larvae, after 4 days
Protocol: (§8) Nezara viridula—Spray Test
as §5, §3
as §4, with “solvent,” for “solvents”, “and the concentrate” for “and”
(§9) Barley plants (Hordeum vulgare) infested with larvae of the southern green stink bug (Nezara viridula) are sprayed with a test solution containing the desired concentration of the active ingredient.
(§10) After 4 days mortality in % is determined. 100% means all the stink bugs have been killed; 0% means none of the stink bugs have been killed.

Nezara viridula [4] = assay: Nezara viridula spray test (solvent 52.5 acetone / 7 dimethylformamide); settings: 96 h, barley plants, larvae, after 4 days
Protocol: as §8, §6, §7
To produce a suitable preparation of active compound, 1 part by weight of active compound is mixed with the stated amount of solvent, and the concentrate is diluted with water, containing an emulsifier concentration of 1000 ppm, to the desired concentration. Ammonium salt and/or penetration enhancer in a dosage of 1000 ppm are added to the desired concentration if necessary.
as §9, §10

Structure (SMILES): O=C(Nc1nc(-c2c(F)cccc2F)ns1)c1ccccc1F [Compound I-1-2]
- larval mortality (efficacy) (Haemonchus contortus): 100%
- nematicidal activity (gall formation) (Meloidogyne incognita): 100%

Structure (SMILES): O=C(Nc1nc(-c2c(F)cccc2F)ns1)c1ccccc1C(F)(F)F [Compound I-1-4]
- efficacy (infertile eggs) (Boophilus microplus): 100%
- efficacy (fleas dead or moribund) (Ctenocephalides felis [1]): 100%
- nematicidal activity (gall formation) (Meloidogyne incognita): 90%

Structure (SMILES): O=C(Nc1nc(-c2c(F)cccc2F)ns1)c1ccccc1Br [Compound I-1-5, 2-Bromo-N-[3-(2,6-difluorophenyl)-1,2,4-thiadiazol-5-yl]benzamide]
- mortality at 500 g/ha (Tetranychus urticae): ≥ 70%
- efficacy (infertile eggs) (Boophilus microplus): 100%
- mortality at 500 g/ha (Phaedon cochleariae): ≥ 80%
- nematicidal activity (gall formation) (Meloidogyne incognita): 90%
- mortality at 100 ppm (Lucilia cuprina): 70 to 100%

Structure (SMILES): O=C(Nc1nc(-c2c(F)cccc2F)ns1)c1cccnc1C(F)(F)F [Compound I-1-6, N-[3-(2,6-difluorophenyl)-1,2,4-thiadiazol-5-yl]-2-(trifluoromethyl)nicotinamide]
- efficacy (infertile eggs) (Boophilus microplus): 100%
- mortality at 100 ppm (Ctenocephalides felis [2]): 100%
- mortality at 500 g/ha (Nilaparvata lugens): ≥ 80%
- efficacy (seedling growth) (Diabrotica balteata): 80%
- mortality at 500 g/ha (Myzus persicae): ≥ 70%
- efficacy (fleas dead or moribund) (Ctenocephalides felis [1]): 100%
- nematicidal activity (gall formation) (Meloidogyne incognita): 100%
- mortality at 100 ppm (Lucilia cuprina): 100%

Structure (SMILES): O=C(Nc1nc(-c2c(F)cccc2F)ns1)c1nccnc1C(F)(F)F [Compound I-1-7]
- efficacy (infertile eggs) (Boophilus microplus): 100%
- efficacy (seedling growth) (Diabrotica balteata): 100%
- efficacy (fleas dead or moribund) (Ctenocephalides felis [1]): 100%

Structure (SMILES): O=C(Nc1nc(-c2ccccc2Cl)ns1)c1ccccc1Br [Compound I-1-21, 2-Bromo-N-[3-(2-chlorophenyl)-1,2,4-thiadiazol-5-yl]benzamide]
- mortality at 500 g/ha (Phaedon cochleariae): ≥ 80%
- mortality at 500 g/ha (Nezara viridula [3]): ≥ 90%

Structure (SMILES): O=C(Nc1nc(-c2c(F)cccc2F)ns1)c1cccnc1Cl [Compound I-1-29, 2-Chloro-N-[3-(2,6-difluorophenyl)-1,2,4-thiadiazol-5-yl]nicotinamide]
- efficacy (seedling growth) (Diabrotica balteata): 80%
- mortality at 500 g/ha (Nezara viridula [3]): ≥ 90%
- mortality at 500 g/ha (Nezara viridula [4]): ≥ 90%
- nematicidal activity (gall formation) (Meloidogyne incognita): 100%

Structure (SMILES): O=C(Nc1nc(-c2c(F)cccc2F)ns1)c1cccnc1C(F)(F)F.[Na+] [Compound I-1-30, Sodium [3-(2,6-difluorophenyl)-1,2,4-thiadiazol-5-yl]{[2-(trifluoromethyl)pyridin-3-yl]carbonyl}azanide]
- mortality at 500 g/ha (Tetranychus urticae): ≥ 70%
- efficacy (infertile eggs) (Boophilus microplus): 100%
- mortality at 500 g/ha (Phaedon cochleariae): ≥ 80%
- efficacy (fleas dead or moribund) (Ctenocephalides felis [1]): 90%
- mortality at 500 g/ha (Nezara viridula [4]): ≥ 90%
- nematicidal activity (gall formation) (Meloidogyne incognita): 100%

Structure (SMILES): CCN(C(=O)c1cccnc1C(F)(F)F)c1nc(-c2c(F)cccc2F)ns1 [Compound I-1-34, N-[3-(2,6-Difluorophenyl)-1,2,4-thiadiazol-5-yl]-N-ethyl-2-(trifluoromethyl)nicotinamide]
- mortality at 500 g/ha (Tetranychus urticae): ≥ 70%

Structure (SMILES): O=C(Nc1nc(-c2ccccc2Cl)ns1)c1cccnc1C(F)(F)F [Compound I-1-43, N-[3-(2-chlorophenyl)-1,2,4-thiadiazol-5-yl]-2-(trifluoromethyl)nicotinamide]
- mortality at 500 g/ha (Tetranychus urticae): ≥ 70%
- mortality at 500 g/ha (Phaedon cochleariae): ≥ 80%
- mortality at 500 g/ha (Nezara viridula [3]): ≥ 90%
- mortality at 500 g/ha (Nezara viridula [4]): ≥ 90%

Structure (SMILES): O=C(Nc1nc(-c2ccc(F)cc2F)ns1)c1cccnc1C(F)(F)F [Compound I-1-56]
- larval mortality (efficacy) (Haemonchus contortus): 80%

Structure (SMILES): O=C(Nc1nc(-c2c(C(F)(F)F)cccc2C(F)(F)F)ns1)c1cccnc1C(F)(F)F [Compound I-1-65, N-{3-[2,6-Bis(trifluoromethyl)phenyl]-1,2,4-thiadiazol-5-yl}-2-(trifluoromethyl)nicotinamide]
- mortality at 500 g/ha (Nilaparvata lugens): ≥ 80%
- mortality at 500 g/ha (Nezara viridula [4]): ≥ 90%

Structure (SMILES): O=C(Nc1nc(-c2ncc(C(F)(F)F)cc2Cl)ns1)c1cccnc1C(F)(F)F [Compound I-2-3, N-{3-[3-Chloro-5-(trifluoromethyl)pyridin-2-yl]-1,2,4-thiadiazol-5-yl}-2-(trifluoromethyl)nicotinamide]
- mortality at 500 g/ha (Phaedon cochleariae): ≥ 80%
- mortality at 500 g/ha (Myzus persicae): ≥ 70%

Structure (SMILES): O=C(Nc1nc(-c2ncccc2Cl)ns1)c1ccccc1Cl [Compound I-2-6, 2-Chloro-N-[3-(3-chloropyridin-2-yl)-1,2,4-thiadiazol-5-yl]benzamide]
- mortality at 500 g/ha (Tetranychus urticae): ≥ 70%
- mortality at 500 g/ha (Nilaparvata lugens): ≥ 80%
- mortality at 500 g/ha (Phaedon cochleariae): ≥ 80%

From patent publication US10271552B2, “Heterocyclic compounds as pesticides” (Bayer CropScience Aktiengesellschaft, priority 2015, dated 2019)
